Data on 33 compounds can be found in patent US9422238B2, “ICMT inhibitors” (National University of Singapore, priority 2012, dated 2016).

Read-outs that look alike come from different tables or passages of the source. Where only a bound is given, the exact number is not on record here.

Experiment [1] deals with PC3 Prostrate cancer cells. In words: Antiproliferative activity / cell viability (MTS, 72 h). It counts as cell-based, human.
Experimental: The relative number of the live cells was determined using the CellTiter® 96 AQueous One Solution Cell Proliferation Assay (Promega). Determinations were made in duplicates or triplicates.
Experiment [2] relates to MDA-MB-231 human breast cells. Described as above.
The target in experiment [3] is T1, Isoprenylcysteine carboxyl methyltransferase (Icmt) (Homo sapiens, UniProt O60725).
T1 construct: made in house; host or cells: Sf9 (Spodoptera frugiperda) insect cells; membrane preparation provided by Prof PJ Casey (Duke University / Duke-NUS)
T1 sequence (O60725 whole entry, species assumed): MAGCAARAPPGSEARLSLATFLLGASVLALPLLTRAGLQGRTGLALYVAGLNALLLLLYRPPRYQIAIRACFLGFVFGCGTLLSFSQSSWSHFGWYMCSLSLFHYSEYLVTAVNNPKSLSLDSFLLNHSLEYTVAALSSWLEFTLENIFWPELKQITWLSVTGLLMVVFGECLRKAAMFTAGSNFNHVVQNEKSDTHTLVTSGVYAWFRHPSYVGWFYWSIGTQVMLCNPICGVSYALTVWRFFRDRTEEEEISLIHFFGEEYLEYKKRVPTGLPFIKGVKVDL
In words: Icmt inhibition, scintillation proximity assay with BFC and [3H]SAM. Format: biochemical. As to conditions: for IC50: Table 3, mean of two or more determinations (SD), read-out: IC50 Icmt. The protocol:
Isoprenylcysteine carboxyl methyltransferase (Icmt) was provided by Prof PJ Casey of Duke University, NC. S-Adenosylmethionine (SAM), magnesium chloride Hexahydrate (MgCl2), tartrazine, 4-(2-hydroxyethyl)-1-piperazineethanesulfonic acid (HEPES), dimethyl sulfoxide (DMSO) and dithiotreitol (DTT) were purchased from Sigma (Mo, USA). [^3H] S-Adenosylmethionine, [^3H] Biotin and Streptavidin PVT SPA Beads were purchased from PerkinElmer (Waltham, Mass.). Assays were performed in black small volume 384 well microtitre plates from PerkinElmer.
Stocks of Icmt membrane protein (30 μg/μL) stored at −80° C. were thawed at 37° C. and placed on ice. The Icmt membrane protein was diluted in assay buffer (70 mM HEPES, 100 mM NaCl, 5 mM Mg Cl2 and 3 mM DTT, pH 7.5) to a 0.03 μg/μL working concentration and added to the wells of a microtitre plate (5 μl/well). To each wells 20 μl of the reaction buffer was added. The reaction was initiated with the addition of 5 μL of substrate solution containing BFC (6 μM), SAM (3 μM) and 30 μCi/mL [^3H] SAM (all of these reagents were stored at −20° C., SAM reagents thawed on ice, BFC thawed at RT). The plate was incubated at 37° C. for 30 minutes. The reaction was stopped with the addition of 15 μL of stop solution containing SAM (150 μM) and Streptavidin SPA beads (20 mg/mL). Following overnight incubation at ambient temperature radioactivity was counted on a Microbeta Trilux™ (Perkin Elmer, Turku, Finland).
Sf9 (Spodoptera frugiperda ovarian) membranes containing recombinant Icmt were provided by Prof PJ Casey (Duke University, NC and Duke-NUS Graduate Medical School). S-Adenosylmethionine (SAM), magnesium chloride hexahydrate, tartrazine, 4-(2-hydroxyethyl)-1-piperazineethanesulfonic acid (HEPES) and dithiotreitol (DTT) were purchased from Sigma (Mo, USA). [^3H] S-Adenosylmethionine, [^3H] biotin and streptavidin PVT SPA Beads were purchased from PerkinElmer (Waltham, Mass.). Biotinylated farnesylcysteine was synthesized as described in an earlier report. Assays were performed in black 384-well microtitre plates from PerkinElmer.
A vial of Icmt membrane protein (30 μg/μL) stored at −80° C. was thawed at 37° C. and placed on ice. The protein was diluted in assay buffer (70 mM HEPES, 100 mM NaCl, 5 mM MgCl2, 3 mM DTT, pH 7.5) to 0.03 μg/μL and aliquots were added to each well (5 μL/well), followed by 20 μL of the assay buffer. The reaction was initiated by adding 5 μL of a solution containing biotinylated BFC (6 μM), SAM (3 μM) and 30 μCi/mL [^3H] SAM. These reagents were stored at −20° C. and thawed on ice (SAM, [^3H] SAM) or at room temperature (BFC). The plate was incubated at 37° C. for 30 minutes after which the reaction was quenched by adding 15 μL of a solution comprising SAM (150 μM) and streptavidin SPA beads (20 mg/mL). After overnight incubation at ambient temperature, radioactivity was counted (Microbeta Trilux™, Perkin Elmer, Turku, Finland). The degree of inhibition was assessed from the radioactivity obtained in presence of test compound compared to that obtained from the control sample […]. Two independent determinations were made for each test compound.
A general note: In a scintillation proximity assay essentially only radioactivity close to the scintillant gives light.

The mark [4] stands for this setting: Homo sapiens, Table 5, read-out: IC50 (μM) PC 3.
Where [5] appears, read: Homo sapiens, MDA-MB-231, read-out: IC50 (μM) MDA-MB231.
Where [6] appears, read: Table 3, 72 h, mean (SD), read-out: IC50 PC3.
Setting [7] is: read-out: IC50MDA-MB-231, Table 3, 72 h, mean (SD).
[8] abbreviates: Homo sapiens, PC-3M, Table 3, 72 h, mean (SD), read-out: IC50 PC3.
Setting [9] is: Homo sapiens, MDA-MB-231, 72 h, read-out: IC50MDA-MB-231 (μM).

Regarding `CCCCCCCCn1c2c(c3cc(-c4cnc(N)nc4)ccc31)CN(C(C)C)CC2` [cpd 474], the IC50 in experiment [1] (setting [4]) was determined as 9.32 ± 0.65 µM; in experiment [2] (setting [5]), 9.17 ± 0.54 µM.
For the compound `CCCCCCCCn1c2c(c3cc(-c4ccnc(F)c4)ccc31)CNCC2` [Compound 315, 8-(2′-fluoropyridin-4-yl)-5-n-octyl-1,2,3,4-tetrahydro-1H-pyrido[4,3-b]indole], the IC50 in experiment [1] (setting [6]) was determined as 7.69 µM; in experiment [2] (setting [7]), 4.59 µM.
For the compound `CCCCCCCCn1c2c(c3cc(-c4cnc(N)nc4)ccc31)CN(C(=O)OCC)CC2` [cpd 480], the results for the IC50 in experiment [1] (setting [4]) and in experiment [2] (setting [5]) were 21.3 µM and 17 µM, respectively.
Consider `CCCCCCCCn1cc(CN(CC)CC)c2cc(-c3cnc(C#N)nc3)ccc21` [Compound 8-19, 5-(3-Diethylaminomethyl-1-octyl-1H-indol-5-yl)-pyrimidine-2-carbonitrile], for which the IC50 amounted to 5.92 µM in experiment [1] (setting [8]), 2.26 µM in experiment [3] and 3.95 µM in experiment [2] (setting [9]).
For `CCCCCCCCn1c2c(c3cc(-c4cnc(N)nc4)ccc31)CN(C(N)=O)CC2` [cpd 319], the IC50 in experiment [1] (setting [4]) stood at 9.43 ± 3.85 µM.
On to `CCCCCCCCn1cc(CC(N)=O)c2cc(-c3ccnc(F)c3)ccc21` [cpd 513], for which the figures for the IC50 in experiment [1] (setting [4]) and in experiment [2] (setting [5]) were 25.6 ± 3.48 µM and 26.1 ± 0.41 µM, respectively.
The matching figures for `CCCCCCCCn1c2c(c3cc(-c4cccc(C)c4)ccc31)CN(C(=O)OCC)CC2` [cpd 481]: 30.1 µM and 25.9 µM.
With `CCCCCCCCn1c2c(c3cc(-c4ccc(S(C)(=O)=O)cc4)ccc31)CNCC2` [Compound 314, 8-(4′-(methylsulfonyl)phenyl)-5-n-octyl-1,2,3,4-tetrahydropyrido[4,3-b]indole], the figures for the IC50 in experiment [1] (setting [8]) and in experiment [2] (setting [9]) were 2.92 µM and 2.1 µM, respectively.
Consider `CCCCCCCCn1c2c(c3cc(-c4cnc(N)nc4)ccc31)CN(CCO)CC2` [cpd 510], for which the IC50 in experiment [1] (setting [4]) was 3.97 ± 0.42 µM; in experiment [2] (setting [5]) it was 3.42 ± 0.72 µM.
`CCCCCCCCn1cc(CN(CC)CC)c2cc(-c3ccccc3C(F)(F)F)ccc21` [Compound 8-4]: the results for the IC50 in experiment [1] (setting [8]), in experiment [3] and in experiment [2] (setting [9]) were 9.66 µM, 1.28 µM and 6.69 µM, respectively.
Consider `CCCCCCCCn1c2c(c3cc(-c4cccc(C)c4)ccc31)CN(Cc1ccccc1)CC2` [cpd 214], for which the IC50 in experiment [1] (setting [4]) amounted to 10.9 ± 2.31 µM; in experiment [2] (setting [5]) it was 8.6 ± 1.68 µM.
Regarding `CCCCCCCCn1c2c(c3cc(-c4cccc(C)c4)ccc31)CN(Cc1ccc(O)cc1)CC2` [Compound 240, 2-(4′-hydroxybenzyl)-8-m-tolyl-5-n-octyl-1,2,3,4-tetrahydropyrido[4,3-b]indoles], the figures for the IC50 in experiment [1] (setting [6]) and in experiment [2] (setting [7]) were 10.2 µM and 14.8 µM, respectively.
For the compound `CCCCCCCCn1cc(CN(CC)CC)c2cc(-c3cccc(F)c3)ccc21` [Compound 8-3], the IC50 in experiment [3] worked out at 1.61 µM.
In the case of `CCCCCCCCn1c2c(c3cc(-c4cccc(C)c4)ccc31)CN(C(N)=O)CC2` [cpd 321], in experiment [1] (setting [4]), the IC50 stood at 10.5 ± 3.08 µM.
As for `CCCCCCCCn1cc(CN(CC)CC)c2cc(-c3cccc(O)c3)ccc21` [Compound 8-21, 3-(3-Diethylaminomethyl-1-octyl-1H-indol-5-yl)-phenol], the IC50 in experiment [1] (setting [8]) was determined as 17.4 µM; in experiment [3], 5.43 µM; in experiment [2] (setting [9]), 14.8 µM.
For `CCCCCCCCn1cc(CN(CC)CC)c2cc(-c3ccc(C#N)cc3)ccc21` [Compound 8-20, 4-(3-Diethylaminomethyl-1-octyl-1H-indol-5-yl)-benzonitrile], the figures for the IC50 in experiment [1] (setting [8]), in experiment [3] and in experiment [2] (setting [9]) were 6.19 µM, 2.45 µM and 7.72 µM, respectively.
Take `CCCCCCCCn1c2c(c3cc(-c4ccnc(F)c4)ccc31)CN(C(N)=O)CC2` [cpd 323]: the IC50 in experiment [1] (setting [4]) turned out to be 10.2 ± 3.63 µM.
Take `CCCCCCCCn1c2c(c3cc(-c4cccc(C)c4)ccc31)CN(C)CC2` [Compound 235, 2-methyl-8-m-tolyl-5-n-octyl-1,2,3,4-tetrahydropyrido[4,3-b]indoles]: the IC50 in experiment [1] (setting [8]) was found to be 7.58 µM; in experiment [3], 10.3 µM; in experiment [2] (setting [9]), 9.18 µM. Further, in experiment [3] (ratio of IC50 Icmt), the “times less potent as an Icmt inhibitor than 8-1” value was approximately 5.
`CCCCCCCCn1cc(C(=O)C(N)=O)c2cc(-c3cccc(C)c3)ccc21` [cpd 273]: the figures for the IC50 in experiment [1] (setting [4]) and in experiment [2] (setting [5]) were 16.7 ± 1.68 µM and more than 50 µM, respectively.
On to `CCCCCCCCn1c2c(c3cc(-c4ccc(S(C)(=O)=O)cc4)ccc31)CN(C(N)=O)CC2` [cpd 324], for which, in experiment [1] (setting [4]), the IC50 came to 8.88 ± 0.62 µM.
For `CCCCCCCCn1c2c(c3cc(-c4cnc(N)nc4)ccc31)CN(S(C)(=O)=O)CC2` [cpd 488], the IC50 in experiment [2] (setting [5]) turned out to be 27.4 µM.
Consider `CCCCCCCCn1cc(CN(CC)CC)c2cc(-c3cnccc3F)ccc21` [Compound 8-8, Diethyl-[5(4-Fluoro-pyrdin-3yl)-1-octyl-1H-indol-3ylmethyl]-amine], for which the IC50 in experiment [1] (setting [6]) was found to be 5.88 µM; in experiment [3], 0.96 µM; in experiment [2] (setting [7]), 5.14 µM.
For `CCCCCCCCn1cc(CN(CC)CC)c2cc(-c3cccc(OC(F)(F)F)c3)ccc21` [Compound 8-6], the IC50 in experiment [1] (setting [6]) amounted to 11.2 µM; in experiment [2] (setting [7]), 7.17 µM.
For `CCCCCCCCn1c2c(c3cc(-c4cnc(N)nc4)ccc31)CN(CC)CC2` [cpd 490], the IC50 in experiment [2] (setting [5]) was found to be 5.85 µM.
For `CCCCCCCCn1c2c(c3cc(F)ccc31)CN(Cc1ccc(O)cc1)CC2` [Compound 205, 8-fluoro-2-(4′-hydroxybenzyl)-5-n-octyl-1,2,3,4-tetrahydropyrido[4,3-b]indole], the IC50 in experiment [1] (setting [8]) was found to be 10.5 µM; in experiment [1] (setting [4]), 10.5 ± 0.28 µM; in experiment [2] (setting [9]), 10.5 µM; in experiment [2] (setting [5]), 10.5 ± 0.08 µM.
For `CCCCCCCCn1cc(CN(CC)CC)c2cc(-c3cccc(C(F)(F)F)c3)ccc21` [Compound 8-5], in experiment [3], the IC50 turned out to be 2.61 µM.
Consider `CCCCCCCCn1c2c(c3cc(-c4cccc(C)c4)ccc31)CN(C(C)C)CC2` [Compound 260, 2-isopropyl-8-m-tolyl-5-n-octyl-1,2,3,4-tetrahydropyrido[4,3-b]indoles], for which the IC50 in experiment [1] (setting [8]) came to 9.69 µM; in experiment [1] (setting [4]), 9.69 ± 1.84 µM; in experiment [3], 8.3 µM; in experiment [2] (setting [9]) it was 7.38 µM; in experiment [2] (setting [5]), 7.38 ± 0.48 µM.
In the case of `CCCCCCCCn1cc(CN(CC)CC)c2cc(-c3ccccc3F)ccc21` [Compound 8-2], the IC50 in experiment [3] was 2.56 µM.
`CCCCCCCCn1cc(CC(N)=O)c2cc(-c3cnc(N)nc3)ccc21` [cpd 512]: the IC50 in experiment [1] (setting [4]) and in experiment [2] (setting [5]) was more than 50 µM each time.
For the compound `CCCCCCCCn1c2c(c3cc(-c4cnc(N)nc4)ccc31)CNCC2` [Compound 309, 8-(2′-amino-pyrimidin-5-yl)-5-n-octyl-1,2,3,4-tetrahydropyrido[4,3-b]indole], the IC50 in experiment [1] (setting [8]) came out at 4.44 µM; in experiment [2] (setting [9]) it was 2.72 µM.
For `CCCCCCCCn1c2c(c3cc(F)ccc31)CN(C)CC2` [Compound 199, 8-fluoro-2-methyl-5-n-octyl-1,2,3,4-tetrahydropyrido[4,3-b]indole], the figures for the IC50 in experiment [1] (setting [8]) and in experiment [2] (setting [9]) were 15.5 µM and 19.2 µM, respectively.
Turning to `CC(C)=CCn1c2c(c3cc(-c4cccc(C)c4)ccc31)CN(Cc1ccc(O)cc1)CC2` [Compound 300, 2-(4′-hydroxybenzyl)-5-isoprenyl-8-m-tolyl-1,2,3,4-tetrahydropyrido[4,3-b]indoles], the IC50 in experiment [1] (setting [8]) was determined as 13.3 µM; in experiment [1] (setting [4]) it was 13.3 ± 5.7 µM; in experiment [2] (setting [9]), 9.38 µM; in experiment [2] (setting [5]), 9.38 ± 0.92 µM.
With `CCCCCCCCn1c2c(c3cc(-c4ccc(S(C)(=O)=O)cc4)ccc31)CN(C)CC2` [Compound 306, 2-methyl-8-(4′-(methylsulfonyl)phenyl)-5-n-octyl-1,2,3,4-tetrahydropyrido[4,3-b]indole], the IC50 in experiment [1] (setting [8]) stood at 5.38 µM; in experiment [2] (setting [9]), 4.6 µM.
